Assays:
[1] = system: pancreatic cancer cells (MIAPACA2); assay: Confocal fluorescence imaging of in situ GNC synthesis; assay type: cell-based, human; details: MIAPACA2; 1 mM, 24 hours; 561 nm excitation, 610 nm emission
Experimental: FIG. 4 presents fluorescence confocal images of non-cancerous (HPDE) and cancerous (MIAPaCa2) pancreatic cells treated with either 1 mM of Au^3+ gold ions or premade albumin-GNCs at 1 mM Au^0 for 24 hours. (From left to right) Cells: untreated; treated with albumin-GNCs; treated with Au^3+ gold ions. […] The strong red fluorescence in cancer cells indicated intracellular synthesis of GNCs from gold ions. Scale bars are 25 μm.
We compared in situ synthesis of GNCs by pancreatic cancer cells (MIAPACA2) and pancreatic noncancerous cells (HPDE) (FIG. 4). Confocal fluorescence images were obtained using a Leica TCS SP8 confocal microscope with 561 nm excitation and 610 nm emission optimized for detection of GNCs.

[2] = system: pancreatic cancer cells (LTPA) vs pancreatic non-cancerous cells (MS1); assay: Confocal fluorescence imaging of intracellular GNC formation, cancerous vs non-cancerous cells; assay type: cell-based
Experimental: Hoechst 33342 stain was used for nuclear contrast. Red channel was used for detection of GNCs with 610 nm emission and 561 nm laser excitation. Scale bars are 25 μm.
Our initial evaluation of intracellular gold nanocluster formation was performed with pancreatic cancer cells (LTPA) and pancreatic non-cancerous cells (MS1) (FIG. 6A-6B). […] Live cell nuclear stain, Hoechst 33342, was used to define the location of nuclei.
Radiosensitization due to intracellular GNC formation (i.e., delivery of Au^3+) was compared between cancerous and non-cancerous cells using a standard clonal assay. For radiosensitization, cells were incubated with 0.1 mM of buffered chloroauric acid in cell culture media for 24 hours. Then, the cells were lifted and plated in 30 mm culture dishes at optimized cell densities for observation of colony formation following irradiation with X-rays at dosages ranging from 0 to 8 Gy (XRAD SmART). […] The radiosensitization results correlated well with the fluorescence images showing greater production of GNCs by cancerous cells (FIG. 6A-6B). For LTPA pancreatic cancer cells the surviving fraction values decreased by a factor of 2.3x and 3.5x for radiation of 4 Gy and 6 Gy, respectively, in cells treated with gold atoms compared to untreated control (FIG. 6B). […]

Mia-PaCa-2 cells = assay: Fluorescence of in situ synthesis vs uptake of prefabricated GNCs; assay type: cell-based, human; details: 1.00 mM, 24 hr (FIG. 8B)
Excerpt: (§1) Hoechst nuclear stain is the only imaging source in the untreated column and the primary imaging source in the albumin-GNC column and the non-cancer Au^3+ panel. Cells are live during imaging. Scale bars are 10 μm.
(§2) FIG. 8B quantifies GNC channel pixel intensity of the samples in each of the rows of FIG. 8A.
(§3) 2.2. Comparisons of efficiency of the GNC in situ synthesis by cancer and normal cells. We compared GNC biosynthesis between normal (HPDE) and cancerous (Mia-PaCa-2 and PANC1) pancreatic cells using fluorescent confocal microscopy (FIG. 8A). In addition, we compared the efficiency of the intracellular synthesis with extracellular uptake of prefabricated albumin coated GNCs (FIG. 8A). […] Further, there was 12.20- and 7.69-times greater fluorescence due to in situ synthesis relative to cellular uptake of prefabricated GNCs in PANC1 and Mia-PaCa-2 cells, respectively (FIG. 8B).

PANC1 cells = assay: as above; assay type: cell-based, human; details: 1.00 mM, 24 hr (FIG. 8B)
Excerpt: as §1, §2, §3

PANC1 pancreatic cancer = assay: gamma H2AX foci quantification of double stranded DNA breaks; assay type: cell-based, human
Experimental: FIG. 21 reports on a mechanistic study of radiosensitization quantifying gamma H2AX foci through fluorescent antibody staining measured at 0, 4, and 24 hours, resulting from 24 hour 0.20 mM Au^3+ treatments (lower three) compared against non-treated (upper three) combined with either 0 Gy or 8 Gy x-ray irradiation. Treatments are in full cell media to PANC1 pancreatic cancer.
2.5. Evaluate radiosensitization efficacy and radiosensitization mechanisms for in situ synthetized GNCs. Based on the studies described in Sections 2.3-2.4, we selected the following conditions for radiosensitization studies in cell culture: 24 hr media conditioning by cells, 10% FBS (v/v) within, and 0.20 mM Au^3+ for 24 hrs.
Further, we characterized the mechanisms of radiosensitization through (i) quantification of double stranded DNA breaks via y-H2AX Foci (FIG. 21), (ii) mitochondrial polarization via JC-1 assay (FIG. 22), (iii) NADP total (FIG. 23) and NADP:NADPH ratio (FIG. 24) via NADP(H) assay, and (iv) peroxidation production via TBARS assay (FIG. 25).

[3] = system: PANC1 xenografts in nu/nu mice; assay: Tumor volume after 10 Gy X-ray irradiation in xenografts; assay type: in vivo; details: 48 hours after treatment with 1.00 mM
[4] = system: 8505C thyroid cancer and Nthy-Ori-3-1 normal thyroid cells; assay: MTT assay of cell viability, thyroid cells; assay type: cell-based; details: 24 hour treatment, all concentrations

## [Au+3].[Cl-].[Cl-].[Cl-].[Cl-].[H+] [Au^3+, chloroauric acid]
[1]
  GNC fluorescence / GNC formation: ubiquitous
[2]
  GNC formation in cancerous cells as compared to non-cancerous cells: striking increase in GNC formation
Mia-PaCa-2 cells
  greater fluorescence due to in situ synthesis relative to cellular uptake of prefabricated GNCs: 7.69 times
PANC1 cells
  greater fluorescence due to in situ synthesis relative to cellular uptake of prefabricated GNCs: 12.20 times
PANC1 pancreatic cancer; 4 hrs after 8 Gy irradiation, 0.20 mM, 24 hrs
  fewer DNA breaks than in untreated control: 29%
PANC1 pancreatic cancer; 24 hr post-irradiation, 8 Gy
  repair of DNA breaks: no significant repair
[3]
  radiosensitization effect by tumor volume measurements: evidence of radiosensitization effect
[4]
  viability of cancer cells compared with normal cells (MTT): significantly lower viability of cancer cells than normal cells

— US20230256094A1, “CANCER RADIOSENSITIZATION BY IN SITU FORMATION OF GOLD NANOPARTICLES AND/OR GOLD NANOCLUSTERS” (BOARD OF REGENTS, THE UNIVERSITY OF TEXAS SYSTEM, priority 2020, published 2023)
